Patent US20070042962A1, “Peptide dependent upregulation of telomerase expression” (priority 2002, published 2007)
Ends that are not written are not given here.

Columns and labels:
telomerase [1] = assay: TRAP telomerase assay in primary cortical rat brain cell cultures; type: cell-based; conditions: for upregulation of expression of telomerase (TRAP): primary rat brain cortical cultures, 1-70 μg/ml
Experimental: (§1) Telomerase activity was measured in total cellular lysates using a telomeric repeat amplification protocol (TRAP). DNA oligomer “TS” 18-mer (AATCCGTCGAGCAGAGTT) (SEQ ID NO:30) was end-labeled with P^32 in a 20 μl reaction containing 50 mM Tris-HCl (pH 7.5), 10 mM MgCl2, 0.1 mM EDTA, 1 mM DTT, 1 pmol TS primer, 1 pmol [γ-^32P]-ATP (4,500 Ci/mmol), and 5 U polynucleotide kinase (Ambion). The reaction was incubated for 20 minutes at 37° C., and then stopped by incubating for 5 minutes at 85° C. Labeled TS oligomer was stored at −20° C. until use.
(§2) Telomerase-induced hexamer extensions to the TS primer were performed in a 50 μl reaction volume containing 20 mM Tris-HCl (pH 8.3), 1.5 mM MgCl2, 63 mM KCl, 0.05% Tween-20, 1 mM EGTA, 50 μM dNTPs, 0.1 pmol ^32P-labeled TS primer, 1 pmol reverse primer RP (CTAACCCTAACCCTAACC) (SEQ ID NO:31), 1.0 μg cell lysate, and 2 U Taq polymerase (Ambion). The reaction was incubated for 30 minutes at 30° C. Hexamer extensions were then amplified by PCR using the following program: denaturation at 94° C. for 30 seconds, annealing at 59° C. for 30 seconds, 27 cycles denaturation/annealing. Radiolabeled ladders were separated by electrophoresis on 10% polyacrylamide gels, dried onto 3 MM paper, and visualized by autoradiography with Kodak X-Omat AR film. Exposure times averaged 4 hours at 25° C. Ladders were quantitated by excision from the gel, and counting in a Bench Count (Beckman).
The ability of representative peptide compounds described herein to upregulate telomerase was also tested in primary cortical cultures of rat brain using the TRAP telomerase assay described above.
[…] […] Negative control cultures were not exposed to a peptide compound during the growth period.
In this case, the P^32-labeled DNA precursors were incorporated into the series of hexamer base pairs showing the upregulation of the telomerase. The total radioactivity corresponding to base pairs ladders from 50 to 80 bp was measured by counting the particular region of the gel. […] The highest concentrations of peptide compound tested produced increasingly less upregulation of the enzyme, as is typically observed at some point along most dose response curves.

telomerase [2] = assay: TRAP telomerase assay in mouse neuroblastoma cells (NB2a/DL); type: cell-based; conditions: CMX-1 100 μg/ml or CMX-3 70 μg/ml, 6 and 24 hours
Experimental: Telomerase activity was assayed in human cells and tumors by telomeric repeat amplification protocol (TRAP) (see, Piatsyzek, Methods in Cell Science, 17:1 (1995)). Whole cell lysates were prepared from approximately 10^6 Nb2a cells. Cells were washed once with PBS, repelleted, and 20 μl of lysate buffer (10 mM Tris-HCl pH 7.5, 1 mM MgCl2, 1 mM EGTA, 0.1 mM benzamidine, 5 mM β-mercaptoethanol, 0.5% CHAPS, 10% glycerol) was added directly to the washed pellets. The suspensions were incubated on ice for 30 minutes to allow cell swelling and lysis. Lysates were cleared by centrifugation at 12,000×g for 20 minutes at 4° C. Total protein concentration was determined for the cleared supernatant using a Coomassie Reagent protocol (Pierce). Supernatants were stored at −70° C.
Telomerase activity was measured in total cellular lysates using a telomeric repeat amplification protocol (TRAP). […]
Telomerase-induced hexamer extensions to the TS primer were performed in a 50 μl reaction volume containing 20 mM Tris-HCl (pH 8.3), 1.5 mM MgCl2, 63 mM KCl, 0.05% Tween-20, 1 mM EGTA, 50 μM dNTPs, 0.1 pmol ^32P-labeled TS primer, 1 pmol reverse primer RP (CTAACCCTAACCCTAACC) (SEQ ID NO:31), 1.0 μg cell lysate, and 2 U Taq polymerase (Ambion). […] Ladders were quantitated by excision from the gel, and counting in a Bench Count (Beckman). […]

[3] = tested on: glutathione peroxidase (GPX); conditions: rat brain cells; same nanogram amounts (1 ng/ml, 24 h); data not shown
Experimental: (§3) Primary cortical rat brain cell cultures were prepared as described above in Example 4 except that cells were cultured following a 24-hour exposure to 0 or 1 nanograms (ng)/ml of CMX-4. […] Positive control (“Pos”) represents the analysis of 1 μg of protein from a total cell lysate of immortalized HeLa cells.
(§4) In addition, the levels of antioxidative enzymes superoxide dismutase (SOD), catalase (CAT), and glutathione peroxidase (GPX) were determined using a standard immunoblotting protocol (see, Adams et al., J. Cell. Biochem., 77: 221-233 (2000)).

[4] = tested on: superoxide dismutase (SOD); conditions: rat brain cells; same nanogram amounts (1 ng/ml, 24 h); data not shown
Experimental: as §3, §4

catalase (CAT) = assay: Immunoblotting of catalase in primary cortical rat brain cell cultures; type: cell-based; conditions: same nanogram amounts (1 ng/ml, 24 h), data not shown
telomerase [5] = assay: TRAP telomerase assay of tissue homogenates from old mice orally treated for 30 days; type: in vivo, mouse
Experimental: as §1, §2
The ability of peptide compounds described herein to upregulate telomerase in old and young mice was also studied. Here, the old mice (17 months old) were treated daily by gavage for 30 days with an oral dose of peptide CMX-2 in saline at doses of 0, 0.03, 0.3, and 3.3 mg of peptide compound per kilogram (kg) of body weight. Control animals received saline only without peptide compound. Animals were sacrificed by decapitation after 30 days and dissected to isolate the brain, heart, and liver, which was frozen at −70° C. for subsequent analysis. […]
Telomerase activity was then measured in the cytoplasmic protein fraction of tissue homogenates.

DGDGDFAIDAPE [CMX-1]
upregulation of expression of telomerase (TRAP) (telomerase [1]): upregulated | increase in the level of telomerase expression relative to control levels (telomerase [1]; primary rat cortical cultures, 10 μg/ml): greater than 4 fold | shape of dose-response curve of telomerase upregulation (telomerase [1]; primary rat cortical cultures, 1, 10, 70 μg/ml): inverted U-shape | upregulation of telomerase over control levels (TRAP) (telomerase [2]): upregulated

R1 Asp Gly, wherein R1 is the iodine-substituted thyronine amino terminal capping group, 3,5,3′-triiodothyronine [CMX-4]
upregulation of glutathione peroxidase (GPX) compared to untreated control cells [3]: upregulated | upregulation of superoxide dismutase (SOD) compared to untreated control cells [4]: upregulated | upregulation of catalase (CAT) compared to untreated control cells (catalase (CAT)): upregulated | upregulation of telomerase (TRAP) (telomerase [1]; primary cortical rat brain cells, 1 ng/ml, 24-hour exposure): effective at upregulating telomerase

[Ac] Asp Gly Glu Ala (Ac-DGEA; listed as Homo sapiens) [CMX-2]
telomerase activity of brain tissue homogenates relative to untreated controls (telomerase [5]; 3.3 mg/kg body weight orally by gavage daily for 30 days, brain): 3.2 fold | upregulation of telomerase in brain tissue (telomerase [5]; oral daily for 30 days, brain): upregulated | upregulation of telomerase in heart tissue (telomerase [5]; oral daily for 30 days, heart): upregulated

Asp Gly [CMX-3]
upregulation of expression of telomerase (TRAP) (telomerase [1]): upregulated | upregulation of telomerase over control at dose of maximum effect (telomerase [1]; primary rat cortical cultures, 1 μg/ml (maximum effect)): 2 fold | upregulation of telomerase over control levels (TRAP) (telomerase [2]): upregulated
